Experimental data: patent publication US20240158465A1, “METHOD FOR INDUCING AND DETECTING SOLUBLE LOX-1 (sLOX-1) IN CULTURED BLOOD CLOTS” (GEORGE MASON UNIVERSITY, priority 2022, published 2024)

Legend:
cultured blood clots = test: sLox-1 shedding into cultured clot serum (ELISA); assay type: cell-based, human; details: cultured clot 4 h, 37° C., vs cultured clot without additive, 100 ng/mL LPS, 10 mM bGP
Source text: This is the enabling data for beta glycerol phosphate and PMA treated blood clots.
Parallel analysis of IL-8/CXCL8 in the cultured clot serum can be used to document test article cytocompatibility. The absence of IL6 in donor fresh blood can be used to verify there is no sepsis or bacteremia, and lack of IL-6 induction in the cultured clot serum can be used to identify sterile inflammation and test article purity (lack of endotoxin response).
In an embodiment, cultured clots were spiked with LPS by injecting an LPS solution into the vacutainer tube immediately after blood collection and before clot formation. These LPS/cultured clots shed even more sLox-1 into the serum than the paired cultured clots without LPS, in line with the known effect of LPS and downstream mediators (TNF, IL1A) in stimulating Lox-1 expression. (FIG. 2).
In an embodiment, a precision medicine tool is developed that detects Lox-1 induction in an ex vivo thrombus and shedding of soluble Lox-1 (sLox-1) into the serum. The tool consists of a red vacutainer tube with as little as 0.5 mL and more ideally 3 or 4 mL of peripheral whole venous blood, that is placed for 4 hours at 37° C.
The optimized cultured clot system involves placing a red cap vacutainer tube with anionic clot-activator at 37° C. for 4 hours after which serum may be collected. Serum contains a mixture of barrier-reducing and barrier-enhancing factors.

sLox-1 shedding by cells = details: previous studies; cited from earlier work
cultured clots [1] = test: CXCL8/IL-8 and IL-6 protein in cultured clot serum; assay type: cell-based, human; details: cultured clot 4 h, 37° C.; for CXCL8/IL-8 protein in cultured clot serum: +100 ng/mL LPS or +10 mM bGP
Description: [Key: FB: fresh blood plasma, cC: cultured clot (4 h, 37° C.), Norm: cultured clot under Normoxia, Hyp: cultured clot under Hypoxia, Hep: heparin blood culture (4 h, 37° C.), +LPS: +100 ng/mL lipopolysaccharide, +bGP: +10 mM disodium beta glycerol phosphate].

cultured clots [2] = test: Neutrophil elastase (NE) release to cultured clot serum; assay type: cell-based, human; details: cultured clot 4 h 37° C.; +10 mM bGP
Description: FB=fresh blood; FC=fresh clot ([…] RT incubation); cC=cultured clot (4 h 37° C.; +LPS=cC+100 ng/mL LPS; +bGP=cC+10 mM bGP. This is enabling data for using the cultured clot system to screen drugs for the ability to inhibit neutrophil degranulation in an assay that uses minimally modified whole blood, by measuring the level of NE and/or PR3, or other granule factors (myeloperoxidase, cathepsin G, elastase, metalloproteinases, defensins) in treated versus untreated cultured clot serum.

cultured clots [3] = test: RT-PCR of transcript levels in cultured clots; assay type: cell-based, human; details: cultured clot 4 h, 37° C.
Description: Lanes: 1. Fresh whole blood (PAXgene); 2. Fresh blood clot (45 min, RT); 3. Cultured clot (4 h, 37° C.); 4. LPS/cultured clot (4 h, 37° C.); 5. Beta-glycerol phosphate cultured clot (4 h, 37° C.); 6. Cultured heparin blood (4 h, 37° C.). OLR1 was induced in all cultured clots (4) and in all cultured clots+LPS ([…]).

endothelial cells = details: other studies; cited from earlier work
[4] = test system: heparinized anticoagulated blood; test: Reversal of heparin anticoagulation to form viable cultured blood clots; assay type: cell-based; details: 4 hours at 37° C.; chitosan 99% DDA, 3 kDa or 10 kDa
Source text: The degree of deacetylation is preferably from 90% to 100% and the molecular weight is preferably at least 3,000 Da and at most 500,000 Da.

HPAEC = test: TER assay of endothelial barrier function; assay type: cell-based, human
Source text: In FIG. 28 TER assay with HPAEC treated with 0.2 U/mL thrombin, 10% fresh serum, 10% cultured clot serum or 10% LPS/cultured clot serum produced by peripheral blood collected from 4 healthy donors (N=2 tests per condition for donors 1 and 2 and N=1 test per condition for combined samples from donors 3 and 4). Mean ±standard deviation (N=4 thrombin and N=5 for all other conditions).

[5] = test system: HEK293 human Lox-1 overexpression system; test: sLox-1 production in HEK293 human Lox-1 overexpression system; assay type: cell-based
Source text: Thrombin, for example, had no effect on sLox-1 production in our HEK293 human Lox-1 overexpression system. The enzymes responsible for sLox-1 shedding are under intense debate and not yet identified in neutrophils. Close scrutiny of PR3 leads hypothesize it is a novel neutrophil-specific sheddase of sLox-1. PR3 is harbored in azurophilic and secretory granules of neutrophils. Upon release, PR3 associates with the neutrophil cell surface via CD177 in cholesterol-rich lipid rafts where Lox-1 is located. PR3 activity is believed to preserve endothelial barrier function during neutrophil extravasation. […] One study used trypsin digestion during sample preparation. The proposed sLox-1 cleavage motif is missing an aliphatic P1′ residue used by ADAM10 and ADAM17 to recognize a substrate. By contrast, the human Lox-1 cleavage region (QISA87R88QQA) has a very striking match with the PR3 cleavage site in IL-8 (AVLPRSA↓RKEL). […] (Table 5). The published cleavage sites for sLox-1 in bovine and human produce a non-conserved sLox-1 N-terminus, with NH2-Glutamine for human and NH2-Serine for bovine (Table 5). […] Potentially harmful bystander elastase activity of PR3 [73] could be suppressed by high levels of alpha-1 antitrypsin or ceruloplasmin that we detected by LC-MS in plasma and serum.

CCCCCCCCCCCCCC(=O)O[C@@H]1[C@@H](C)[C@@]2(O)[C@@H](C=C(CO)C[C@]3(O)C(=O)C(C)=C[C@@H]23)[C@@H]2C(C)(C)[C@]12OC(C)=O [PMA, phorbol myristate acetate]
sLox-1 shedding into cultured clot serum (cultured blood clots): enhanced

O=S(=O)(F)Cc1ccccc1 [PMSF, phenylmethylsulfonyl fluoride]
sLox-1 shedding by exposed cells (sLox-1 shedding by cells): reduced sLox-1 shedding

CC(C)C[C@H](CC(=O)NO)C(=O)N[C@@H](Cc1ccc2ccccc2c1)C(=O)N[C@@H](C)C(=O)NCCN [TAPI-1]
sLox-1 shedding by exposed cells (sLox-1 shedding by cells): reduced sLox-1 shedding

O=P([O-])([O-])OC(CO)CO.[Na+].[Na+] [bGP, disodium beta glycerol phosphate]
CXCL8/IL-8 protein in cultured clot serum (cultured clots [1]): does not alter | neutrophil elastase (NE) release to serum (cultured clots [2]): inhibited | CXCL8/IL-8 expression (RT-PCR) (cultured clots [3]; 10 mM): without suppressing | TNF expression (RT-PCR) (cultured clots [3]; 10 mM): specifically suppressed | sLox-1 shedding into cultured clot serum (cultured blood clots): suppressed | sLox-1 shedding into cultured clot serum (cultured blood clots; listed as phosphatase inhibitor): inhibited

CC(C)c1nc(N(C)S(C)(=O)=O)nc(-c2ccc(F)cc2)c1/C=C/[C@@H](O)C[C@@H](O)CC(=O)O [rosuvastatin]
Lox-1 expression in endothelial cells (endothelial cells): inhibited Lox-1 expression

lipopolysaccharide [LPS]
IL-6 protein in cultured clot serum (cultured clots [1]; +100 ng/mL LPS): elevated | CXCL8/IL-8 protein in cultured clot serum (cultured clots [1]): elevated | IL6 expression (RT-PCR) (cultured clots [3]): induced | sLox-1 shedding into cultured clot serum (cultured blood clots): increased

protamine
reversal of heparin anticoagulation, forming viable cultured blood clots [4]: reverse heparin anticoagulation

thrombin
effect on endothelial barrier function (HPAEC; 0.6 hours post-stimulation, vs control, fresh serum): transient loss of barrier function | mean normalized resistance at 36 min (HPAEC; HPAEC, 10% serum or 0.2 U/mL thrombin, 36 min, mean ± SD): 0.48±0.03 | sLox-1 production [5]: no effect
